Our source for the Ki, Ki app and Km values is ChEMBL document CHEMBL1125463, “Inhibition of N8-acetylspermidine deacetylase by active-site-directed metal coordinating inhibitors” (J Med Chem, 1992).

A short description of assay [1]: In vitro inhibition of N8-Acetylspermidine deacetylase from rat liver cytosol(apparent Ki). Particulars: for Ki: read-out: Ki app; call rule not given here.
The nature of assay [2]: (§1) In vitro inhibition of N8-Acetylspermidine deacetylase from rat liver cytosol. Particulars: read-out: Ki app.
Assay [3] can be described thus: In vitro inhibition of N8-Acetylspermidine deacetylase from rat liver cytosol(apparent Ki); Ni means no inhibition.
The species entered for a further assay is Rattus norvegicus. The description is as §1.

Take `CCCC(=O)[O-].[Na+]` [SODIUM BUTYRATE]: the Ki in assay [1] amounted to 38500 µM.
As to `NCCCCCC(=O)O` [AMINOCAPROIC ACID], in assay [1], the Ki is 50 µM.
On to `NCCCNCCCCCC(=O)NO`, for which the Ki in assay [1] turned out to be 0.001 µM.
Take `NCCCNCCCCCC(=O)O`: in assay [2], the Ki is 11 µM.
In the case of `NC(=O)CI` [IODOACETAMIDE], the Ki app result in assay [3] is on record as “Not Active”.
For the molecule `c1ccc(-c2ccccn2)nc1` [DIPYRIDYL], in assay [2], the Ki amounted to 1900 µM.
Still for that read-out and setting: in the case of `O=C(O)CN(CCN(CC(=O)O)CC(=O)O)CC(=O)O` [EDETIC ACID] it was 3500 µM.
Turning to Para-Hydroxymercuribenzoic acid, in assay [1], the Ki amounted to 150 µM.
As for `NCCCCC(=O)O` [5-AMINOVALERIC ACID], the Ki in assay [1] stood at 4100 µM.
As to `CC(=O)NCCCCN`, the Ki in assay [1] stood at 800 µM.
With `c1cnc2ccc3ncccc3c2c1`, in assay [1], the Ki app result is “No inhibition”.
Turning to `CCN1C(=O)C=CC1=O` [N-ETHYLMALEIMIDE], in assay [1], the Ki was 860 µM.
For the molecule `c1cnc2c(c1)ccc1cccnc12` [PHENANTHROLINE], in assay [1], the Ki stood at 1300 µM.
For the molecule `CC(=O)NCCCCNCCCN`, the Michaelis-Menten constant (Km) – broadly, the concentration of substrate that gives half-maximal velocity – in the assay listed under Rattus norvegicus amounted to 11 µM.
